From PMC10511816 (The Journal of Biological Chemistry, 2023)
Blank lines part the entries; values can stand above or below the compound they belong to.

Assays:
XOR [1] = details: read-out: Ki for the conversion of xanthine to uric acid; cited from earlier work
XOR [2] = molecular target: T1, XOR (Bos taurus, UniProt P80457); assay: XOR kinetics with phenazine methosulfate / cytochrome c reduction (550 nm); assay type: biochemical, bovine; details: XOR, PMS
T1 construct: Bovine milk was obtained from the animal farm of the Nippon Veterinary and Life Science University; from tissue; host or cells: bovine milk
Method: Therefore, phenazine methosulfate was used to induce direct, rapid reoxidation of the molybdenum center ([22], [23]).
Bovine milk was obtained from the animal farm of the Nippon Veterinary and Life Science University. […] The dehydrogenase form of the enzyme (XDH) was obtained by reacting XO immediately upon purification with 5 mM DTT at pH 8.5, 25 °C for 1 h. XO and XDH assays were carried out at 25 °C under aerobic conditions. […] A total of 500 μM β-NAD^+ was added to the same reaction solution for XDH activity. Physiological conditions such as pH 7.4 (0.1 M potassium phosphate buffer (KPB), 0.2 mM EDTA) and the addition of 50 μM β-NADH were also used. […] In addition, the enzyme reaction solution was quenched with perchloric acid and neutralized with K2CO3, with products analyzed using HPLC as described below. Spectrophotometric data were analyzed using UV-Probe software Ver. 2.70 or LabSolutions UV-Vis Ver. […] Kinetic parameters were determined from nonlinear curve fits of raw data using GraphPad Prism 9 software.
A295 indicates the concentration of uric acid yielded by XOR. […] A295 indicates the concentration of uric acid yielded by XOR. Figure S2. The XOR inhibition mode of oxypurinol.A–G, Lineweaver-Burk plots were generated to visualize data and estimated the inhibition patterns. Data are representative of least two independent experiments. […] Figure S3. […] B, mode of inhibition of oxypurinol on the inosine degradation reaction of PNP. […] 0, 250, 375, 500, 750 and 1000 μM of oxypurinol were used. […] The rate of NAD^+ conversion to NADH was measured at A340 nm.

[3] = molecular target: T2, Purine nucleoside phosphorylase (PNP) (Homo sapiens, UniProt P00491); set-up: method as in PMID 5653179, PMID 121041; details: cited from earlier work
T2 construct: purchased Sigma-Aldrich; host or cells: E. coli
T2 sequence (P00491 1-289): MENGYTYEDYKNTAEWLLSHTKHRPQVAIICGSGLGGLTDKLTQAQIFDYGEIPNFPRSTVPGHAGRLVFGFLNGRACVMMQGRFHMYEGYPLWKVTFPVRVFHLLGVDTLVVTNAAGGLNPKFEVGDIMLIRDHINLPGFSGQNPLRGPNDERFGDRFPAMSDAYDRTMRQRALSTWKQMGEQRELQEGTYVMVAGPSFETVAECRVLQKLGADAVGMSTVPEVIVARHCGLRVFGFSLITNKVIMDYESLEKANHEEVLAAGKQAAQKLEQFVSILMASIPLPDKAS

T1 sequence (P80457 whole entry): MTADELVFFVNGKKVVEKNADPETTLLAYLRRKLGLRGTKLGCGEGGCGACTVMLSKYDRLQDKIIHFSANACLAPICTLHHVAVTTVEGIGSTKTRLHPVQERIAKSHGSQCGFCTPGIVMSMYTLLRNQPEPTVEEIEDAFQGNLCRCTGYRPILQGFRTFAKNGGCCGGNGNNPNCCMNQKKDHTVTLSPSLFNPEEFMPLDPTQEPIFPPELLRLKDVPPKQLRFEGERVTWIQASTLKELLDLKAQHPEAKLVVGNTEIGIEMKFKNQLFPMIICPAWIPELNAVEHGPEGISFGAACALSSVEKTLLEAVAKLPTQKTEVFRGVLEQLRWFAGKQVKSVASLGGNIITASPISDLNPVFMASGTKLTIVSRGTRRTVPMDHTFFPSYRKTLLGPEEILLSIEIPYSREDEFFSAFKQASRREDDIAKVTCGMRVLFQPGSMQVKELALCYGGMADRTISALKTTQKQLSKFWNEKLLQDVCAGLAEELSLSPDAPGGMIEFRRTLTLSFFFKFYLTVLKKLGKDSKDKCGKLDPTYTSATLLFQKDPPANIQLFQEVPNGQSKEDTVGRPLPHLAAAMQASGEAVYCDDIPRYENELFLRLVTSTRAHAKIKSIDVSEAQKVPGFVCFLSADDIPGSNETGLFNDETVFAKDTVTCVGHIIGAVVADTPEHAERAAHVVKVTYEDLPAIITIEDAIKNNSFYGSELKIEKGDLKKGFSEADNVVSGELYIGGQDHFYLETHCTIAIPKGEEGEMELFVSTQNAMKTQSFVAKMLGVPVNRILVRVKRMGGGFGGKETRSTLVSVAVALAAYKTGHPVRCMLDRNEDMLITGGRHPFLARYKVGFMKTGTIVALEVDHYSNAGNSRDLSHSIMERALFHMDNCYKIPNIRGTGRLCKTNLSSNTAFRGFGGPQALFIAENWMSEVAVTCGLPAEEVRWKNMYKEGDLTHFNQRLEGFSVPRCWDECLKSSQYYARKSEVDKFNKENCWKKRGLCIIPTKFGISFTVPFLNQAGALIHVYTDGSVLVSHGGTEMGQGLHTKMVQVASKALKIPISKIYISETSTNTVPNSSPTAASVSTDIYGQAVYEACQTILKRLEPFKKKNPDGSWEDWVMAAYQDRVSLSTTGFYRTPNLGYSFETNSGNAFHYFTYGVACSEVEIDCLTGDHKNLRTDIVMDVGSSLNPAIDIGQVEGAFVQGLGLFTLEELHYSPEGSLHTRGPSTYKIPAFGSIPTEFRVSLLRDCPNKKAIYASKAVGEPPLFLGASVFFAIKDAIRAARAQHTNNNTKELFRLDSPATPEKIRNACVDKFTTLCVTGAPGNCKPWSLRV

Compound: COc1cc(-c2cnn3c(=O)nc[nH]c23)ccc1[S+]([O-])c1ccccc1 (stereo not shown) [BOF]
Ki (XOR [1]): < 0.01 µM

Types of inhibition (XOR [2]; substrate hypoxanthine): Mixed
Types of inhibition (XOR [2]; substrate xanthine): Mixed
Compound: Cc1nc(-c2ccc(OCC(C)C)c(C#N)c2)sc1C(=O)O [Febuxostat]

Compound: O=c1ncnc2n([C@H]3O[C@@H](CO)[C@H](O)[C@@H]3O)[nH]cc1-2 [ribosyl derivative]
Ki [3]: > 200 µM
